Here are results for three molecules from patent publication US5624923A, “Tricyclic diazepine vasopressin antagonists and oxytocin antagonists” (priority 1995, dated 1997).

In one assay the test system is Vasopressin V1. The experiment in a line: Vasopressin V1 Antagonist Activity in Conscious Rats (vasopressin vasopressor response). The assay is classed as in vivo, rat. Also noted: Average Change: unit not given here. To be noted: for % Inhibition / Average Change: 10 mg/kg i.v., SHR. Put shortly:
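Conscious rats are restrained supine, and under local 2% procaine a PE 10/20 cannula is passed through the ventral caudal tail artery into the lower abdominal aorta. The caudal vein is cannulated for intravenous dosing. Blood pressure is recorded with a Statham P23Db transducer, and vasopressin injections are repeated after compound dosing. Percent antagonism is calculated against the pre-drug vasopressor response taken as 100%.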

The target of the next assay is T1, Rat Hepatic V1 Receptors (Rattus norvegicus, UniProt P30560).
T1 construct: Rat liver plasma membranes expressing the vasopressin V1 receptor subtypes; from tissue; host or cells: rat liver plasma membranes
T1 sequence (P30560 whole entry): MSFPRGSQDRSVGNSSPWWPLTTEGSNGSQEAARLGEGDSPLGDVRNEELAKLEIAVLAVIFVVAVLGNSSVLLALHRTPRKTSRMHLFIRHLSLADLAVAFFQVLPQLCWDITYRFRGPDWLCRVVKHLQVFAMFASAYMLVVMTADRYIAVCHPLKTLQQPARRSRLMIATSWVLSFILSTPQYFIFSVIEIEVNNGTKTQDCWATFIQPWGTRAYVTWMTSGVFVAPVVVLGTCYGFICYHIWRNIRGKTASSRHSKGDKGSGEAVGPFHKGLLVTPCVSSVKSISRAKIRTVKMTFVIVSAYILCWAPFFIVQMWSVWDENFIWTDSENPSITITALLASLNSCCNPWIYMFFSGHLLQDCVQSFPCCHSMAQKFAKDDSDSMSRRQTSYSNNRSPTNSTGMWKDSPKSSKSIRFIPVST
In words: Binding Assay to Rat Hepatic V1 Receptors. To be noted: rat liver membranes; read-out: V1 IC50.

Broadly, the % Inhibition is the drop in the measured response relative to a control, in per cent. What is called IC50 is the concentration at which inhibition is half-maximal. As for `O=C(Nc1ccc(C(=O)N2Cc3cccn3Cc3ccccc32)cc1)c1ccc(Cl)cc1Cl` [Example 6, N-[4-(5H-pyrrolo[2,1-c][1,4]benzodiazepin-10(11H)-ylcarbonyl)phenyl]-2,4-dichlorobenzamide], the “% Inhibition” value turned out to be 85% in the assay on Vasopressin V1 (VAS 0.01 i.u./kg, 30 min); 79% with Vasopressin V1 (VAS 0.01 i.u./kg, 60 min); 63% with Vasopressin V1 (VAS 0.01 i.u./kg, 90 min); 59% with Vasopressin V1 (VAS 0.01 i.u./kg, 120 min); 44% in the assay with Vasopressin V1 (VAS 0.01 i.u./kg, 180 min); 34% in the assay on Vasopressin V1 (VAS 0.01 i.u./kg, 240 min). The “% Inhibition” value in the assay on Vasopressin V1 (VAS 0.01 i.u./kg, 300 min) is listed as 30%; in the assay with Vasopressin V1 (VAS 0.02 i.u./kg, 30 min) it was 62%; in the assay on Vasopressin V1 (VAS 0.02 i.u./kg, 60 min), 45%; in the assay on Vasopressin V1 (VAS 0.02 i.u./kg, 90 min) it was 36%; with Vasopressin V1 (VAS 0.02 i.u./kg, 120 min), 30%; in the assay with Vasopressin V1 (VAS 0.02 i.u./kg, 180 min), 17%. In addition, the “% Inhibition” value in the assay on Vasopressin V1 (VAS 0.02 i.u./kg, 240 min) was 15%; in the assay on Vasopressin V1 (VAS 0.02 i.u./kg, 300 min), 14%. For the same molecule, the “Average Change” value came to 5.5 with Vasopressin V1 (VAS 0.01 i.u./kg, 30 min); 7.5 in the assay on Vasopressin V1 (VAS 0.01 i.u./kg, 60 min); 13.5 in the assay with Vasopressin V1 (VAS 0.01 i.u./kg, 90 min); 15 with Vasopressin V1 (VAS 0.01 i.u./kg, 120 min); 20.5 in the assay on Vasopressin V1 (VAS 0.01 i.u./kg, 180 min); 24 in the assay on Vasopressin V1 (VAS 0.01 i.u./kg, 240 min). Also, the “Average Change” value is listed as 25.5 in the assay with Vasopressin V1 (VAS 0.01 i.u./kg, 300 min); 16 in the assay on Vasopressin V1 (VAS 0.02 i.u./kg, 30 min); 23 with Vasopressin V1 (VAS 0.02 i.u./kg, 60 min); 27 in the assay with Vasopressin V1 (VAS 0.02 i.u./kg, 90 min); 29.5 in the assay on Vasopressin V1 (VAS 0.02 i.u./kg, 120 min); 35 with Vasopressin V1 (VAS 0.02 i.u./kg, 180 min). The “Average Change” value stood at 35.5 in the assay on Vasopressin V1 (VAS 0.02 i.u./kg, 240 min) and 36 in the assay with Vasopressin V1 (VAS 0.02 i.u./kg, 300 min). For the same molecule, the IC50 on Rat Hepatic V1 Receptors amounted to 23 nM.

Consider `O=C(Nc1ccc(C(=O)N2Cc3cccn3Cc3ccccc32)cc1)c1ccccc1Cl` [Example 7], for which the “% Inhibition” value turned out to be 87% with Vasopressin V1 (VAS 0.01 i.u./kg, 30 min); 87% in the assay with Vasopressin V1 (VAS 0.01 i.u./kg, 60 min); 82% in the assay on Vasopressin V1 (VAS 0.01 i.u./kg, 90 min); 80% in the assay on Vasopressin V1 (VAS 0.01 i.u./kg, 120 min); 63% in the assay on Vasopressin V1 (VAS 0.01 i.u./kg, 180 min); 56% in the assay on Vasopressin V1 (VAS 0.01 i.u./kg, 240 min). Also, the “% Inhibition” value is given as 57% in the assay with Vasopressin V1 (VAS 0.01 i.u./kg, 300 min); 87% in the assay with Vasopressin V1 (VAS 0.02 i.u./kg, 30 min); 86% in the assay on Vasopressin V1 (VAS 0.02 i.u./kg, 60 min); 78% in the assay on Vasopressin V1 (VAS 0.02 i.u./kg, 90 min); 77% in the assay with Vasopressin V1 (VAS 0.02 i.u./kg, 120 min); 59% in the assay with Vasopressin V1 (VAS 0.02 i.u./kg, 180 min). For the same molecule, the “% Inhibition” value in the assay with Vasopressin V1 (VAS 0.02 i.u./kg, 240 min) was found to be 46%; in the assay with Vasopressin V1 (VAS 0.02 i.u./kg, 300 min) it was 59%. The “Average Change” value is listed as 6 with Vasopressin V1 (VAS 0.01 i.u./kg, 30 min); 6 in the assay with Vasopressin V1 (VAS 0.01 i.u./kg, 60 min); 8.5 in the assay on Vasopressin V1 (VAS 0.01 i.u./kg, 90 min); 9.5 in the assay on Vasopressin V1 (VAS 0.01 i.u./kg, 120 min); 17.5 with Vasopressin V1 (VAS 0.01 i.u./kg, 180 min); 20.5 with Vasopressin V1 (VAS 0.01 i.u./kg, 240 min). Moreover, the “Average Change” value in the assay on Vasopressin V1 (VAS 0.01 i.u./kg, 300 min) was 20; in the assay on Vasopressin V1 (VAS 0.02 i.u./kg, 30 min) it was 7.5; in the assay with Vasopressin V1 (VAS 0.02 i.u./kg, 60 min) it was 8; in the assay with Vasopressin V1 (VAS 0.02 i.u./kg, 90 min), 12.5; in the assay on Vasopressin V1 (VAS 0.02 i.u./kg, 120 min), 13; in the assay with Vasopressin V1 (VAS 0.02 i.u./kg, 180 min), 23. Further, the “Average Change” value with Vasopressin V1 (VAS 0.02 i.u./kg, 240 min) was 30.5; in the assay with Vasopressin V1 (VAS 0.02 i.u./kg, 300 min) it was 23. In addition, at Rat Hepatic V1 Receptors, the IC50 is 10 nM.

As for `O=C(Nc1ccc(C(=O)N2Cc3cccn3-c3ccccc32)cc1)c1ccc(Cl)cc1Cl` [Example 17, N-[4-(pyrrolo(1,2-a]quinoxalin-5(4H)-ylcarbonyl)phenyl]-2,4-dichloro-benzamide], in the assay with Vasopressin V1 (30 mg/kg i.v.), the “Max. % Inhibition” value amounted to 50% and the “Time (of max. % inhibition)” value is 60 min. At Rat Hepatic V1 Receptors, the IC50 is 1200 nM.
